Assay results reported in PubChem BioAssay AID2060328 (Molecular Pharmacology Branch, DTP, NCI, 2025).

Test system: MDA-MB-231 multicell spheroids, viability (%T/C)
Assay: Anticancer human tumor MDA-MB-231 cell line growth inhibition [IpAb];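 note: viability read after seven days of drug exposure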;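 for viability, T/C: 100% = DMSO vehicle control viability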
Conditions: for IC50: curve of first compound; for viability, T/C: stronger effect = lower value; active = viability on the fitted dose curve at most 10% of control; inactive = the rest
Procedure, shortened: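 Combinations with ipatasertib or abemaciclib were tested on tumour spheroids holding HUVEC (25%) and MSC (15%) alongside 60% malignant cells. Top concentration was at or near clinical Cmax (10 microM if undefined), descending in half-log steps.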

[1] = second compound 0.01 µM, first compound 0.00949 µM
[2] = second compound 0.01 µM, first compound 0.03 µM
[3] = second compound 0.01 µM, first compound 0.0949 µM
[4] = second compound 0.01 µM, first compound 0.3 µM
[5] = second compound 0.0316 µM, first compound 0.00949 µM
[6] = second compound 0.0316 µM, first compound 0.03 µM
[7] = second compound 0.0316 µM, first compound 0.0949 µM
[8] = second compound 0.0316 µM, first compound 0.3 µM
[9] = second compound 0.1 µM, first compound 0.00949 µM
[10] = second compound 0.1 µM, first compound 0.03 µM
[11] = second compound 0.1 µM, first compound 0.0949 µM
[12] = second compound 0.1 µM, first compound 0.3 µM
[13] = second compound 0.316 µM, first compound 0.00949 µM
[14] = second compound 0.316 µM, first compound 0.03 µM
[15] = second compound 0.316 µM, first compound 0.0949 µM
[16] = second compound 0.316 µM, first compound 0.3 µM
[17] = second compound 1 µM, first compound 0.00949 µM
[18] = second compound 1 µM, first compound 0.03 µM
[19] = second compound 1 µM, first compound 0.0949 µM
[20] = second compound 1 µM, first compound 0.3 µM
[21] = second compound 0.01 µM, first compound 0.0316 µM
[22] = second compound 0.01 µM, first compound 0.1 µM
[23] = second compound 0.01 µM, first compound 0.316 µM
[24] = second compound 0.01 µM, first compound 1 µM
[25] = second compound 0.01 µM, first compound 3.16 µM
[26] = second compound 0.01 µM, first compound 10 µM
[27] = second compound 0.0316 µM, first compound 0.0316 µM
[28] = second compound 0.0316 µM, first compound 0.1 µM
[29] = second compound 0.0316 µM, first compound 0.316 µM
[30] = second compound 0.0316 µM, first compound 1 µM
[31] = second compound 0.0316 µM, first compound 3.16 µM
[32] = second compound 0.0316 µM, first compound 10 µM
[33] = second compound 0.1 µM, first compound 0.0316 µM
[34] = second compound 0.1 µM, first compound 0.1 µM
[35] = second compound 0.1 µM, first compound 0.316 µM
[36] = second compound 0.1 µM, first compound 1 µM
[37] = second compound 0.1 µM, first compound 3.16 µM
[38] = second compound 0.1 µM, first compound 10 µM
[39] = second compound 0.316 µM, first compound 0.0316 µM
[40] = second compound 0.316 µM, first compound 0.1 µM
[41] = second compound 0.316 µM, first compound 0.316 µM
[42] = second compound 0.316 µM, first compound 1 µM
[43] = second compound 0.316 µM, first compound 3.16 µM
[44] = second compound 0.316 µM, first compound 10 µM
[45] = second compound 1 µM, first compound 0.0316 µM
[46] = second compound 1 µM, first compound 0.1 µM
[47] = second compound 1 µM, first compound 0.316 µM
[48] = second compound 1 µM, first compound 1 µM
[49] = second compound 1 µM, first compound 3.16 µM
[50] = second compound 1 µM, first compound 10 µM

CC(=O)c1c(C)c2cnc(Nc3ccc(N4CCNCC4)cn3)nc2n(C2CCCC2)c1=O + CCN1CCN(Cc2ccc(Nc3ncc(F)c(-c4cc(F)c5nc(C)n(C(C)C)c5c4)n3)nc2)CC1
44.3 nM: IC50 (second compound 0.0316 µM)
inactive: viability, T/C (second compound 0.01 µM, first compound 0.000949 µM) 87.9% | viability, T/C (second compound 0.01 µM, first compound 0.003 µM) 82.1% | viability, T/C [1] 74.1% | viability, T/C [2] 55.2% | viability, T/C [3] 46.3% | viability, T/C [4] 43.1% | viability, T/C (second compound 0.0316 µM, first compound 0.000949 µM) 71.8% | viability, T/C (second compound 0.0316 µM, first compound 0.003 µM) 71.5% | viability, T/C [5] 66.8% | viability, T/C [6] 52.8% | viability, T/C [7] 44.4% | viability, T/C [8] 40.4% | viability, T/C (second compound 0.1 µM, first compound 0.000949 µM) 60% | viability, T/C (second compound 0.1 µM, first compound 0.003 µM) 59.2% | viability, T/C [9] 54% | viability, T/C [10] 47.1% | viability, T/C [11] 41% | viability, T/C [12] 41.8% | viability, T/C (second compound 0.316 µM, first compound 0.000949 µM) 49.2% | viability, T/C (second compound 0.316 µM, first compound 0.003 µM) 50.9% | viability, T/C [13] 46.2% | viability, T/C [14] 44.7% | viability, T/C [15] 44% | viability, T/C [16] 42% | viability, T/C (second compound 1 µM, first compound 0.000949 µM) 55.4% | viability, T/C (second compound 1 µM, first compound 0.003 µM) 58.5% | viability, T/C [17] 53.8% | viability, T/C [18] 53.4% | viability, T/C [19] 52.8% | viability, T/C [20] 48.9%
18.1 nM: IC50 (second compound 0.1 µM)
59.4 nM: IC50 (second compound 0.01 µM)
> 300 nM: IC50 (second compound 1 µM)
1.19 nM: IC50 (second compound 0.316 µM)

CC(C)(C)c1cnc(CSc2cnc(NC(=O)C3CCNCC3)s2)o1 + CCN1CCN(Cc2ccc(Nc3ncc(F)c(-c4cc(F)c5nc(C)n(C(C)C)c5c4)n3)nc2)CC1
120 nM: IC50 (second compound 0.1 µM)
active: viability, T/C [4] 1.81% | viability, T/C (second compound 0.01 µM, first compound 0.949 µM) 0.77% | viability, T/C (second compound 0.01 µM, first compound 3 µM) 0.81% | viability, T/C [8] 1.55% | viability, T/C (second compound 0.0316 µM, first compound 0.949 µM) 0.68% | viability, T/C (second compound 0.0316 µM, first compound 3 µM) 0.85% | viability, T/C [12] 1.37% | viability, T/C (second compound 0.1 µM, first compound 0.949 µM) 0.89% | viability, T/C (second compound 0.1 µM, first compound 3 µM) 1.1% | viability, T/C [16] 1.36% | viability, T/C (second compound 0.316 µM, first compound 0.949 µM) 0.96% | viability, T/C (second compound 0.316 µM, first compound 3 µM) 0.95% | viability, T/C [20] 1.87% | viability, T/C (second compound 1 µM, first compound 0.949 µM) 1.16% | viability, T/C (second compound 1 µM, first compound 3 µM) 1.42%
171 nM: IC50 (second compound 0.01 µM)
33.3 nM: IC50 (second compound 0.316 µM)
36.3 nM: IC50 (second compound 1 µM)
inactive: viability, T/C [1] 92.2% | viability, T/C [2] 102% | viability, T/C [3] 106% | viability, T/C [5] 76.8% | viability, T/C [6] 82.2% | viability, T/C [7] 83.9% | viability, T/C [9] 59.1% | viability, T/C [10] 63.1% | viability, T/C [11] 66% | viability, T/C [13] 47.4% | viability, T/C [14] 53.4% | viability, T/C [15] 46.1% | viability, T/C [17] 52.7% | viability, T/C [18] 53.4% | viability, T/C [19] 34.9%
148 nM: IC50 (second compound 0.0316 µM)

Cc1nc(NC(=O)N2CCCC2C(N)=O)sc1-c1ccnc(C(C)(C)C(F)(F)F)c1 (stereo not given) + CCN1CCN(Cc2ccc(Nc3ncc(F)c(-c4cc(F)c5nc(C)n(C(C)C)c5c4)n3)nc2)CC1
> 10000 nM: IC50 (second compound 0.01 µM)
< 31.6 nM: IC50 (second compound 0.1 µM) | IC50 (second compound 0.316 µM) | IC50 (second compound 1 µM)
inactive: viability, T/C [21] 79.3% | viability, T/C [22] 61.5% | viability, T/C [23] 56% | viability, T/C [24] 55.2% | viability, T/C [25] 59.1% | viability, T/C [26] 55.4% | viability, T/C [27] 64% | viability, T/C [28] 52.2% | viability, T/C [29] 46.6% | viability, T/C [30] 45.9% | viability, T/C [31] 47.3% | viability, T/C [32] 45.4% | viability, T/C [33] 46.1% | viability, T/C [34] 41.8% | viability, T/C [35] 35.8% | viability, T/C [36] 38.4% | viability, T/C [37] 41.5% | viability, T/C [38] 41.8% | viability, T/C [39] 43.7% | viability, T/C [40] 39.3% | viability, T/C [41] 37.3% | viability, T/C [42] 37.7% | viability, T/C [43] 39.4% | viability, T/C [44] 45.3% | viability, T/C [45] 50.8% | viability, T/C [46] 48.2% | viability, T/C [47] 44.6% | viability, T/C [48] 45.9% | viability, T/C [49] 53.9% | viability, T/C [50] 61%
159 nM: IC50 (second compound 0.0316 µM)

Cn1nccc1Nc1nccc(-c2ccn(C(CO)c3ccc(Cl)c(F)c3)c(=O)c2)n1 (stereo not given) + CCN1CCN(Cc2ccc(Nc3ncc(F)c(-c4cc(F)c5nc(C)n(C(C)C)c5c4)n3)nc2)CC1
< 31.6 nM: IC50 (second compound 0.0316 µM) | IC50 (second compound 0.1 µM) | IC50 (second compound 0.316 µM) | IC50 (second compound 1 µM)
inactive: viability, T/C [21] 58% | viability, T/C [22] 50.2% | viability, T/C [23] 41.8% | viability, T/C [24] 37% | viability, T/C [25] 29.8% | viability, T/C [26] 21.9% | viability, T/C [27] 45.3% | viability, T/C [28] 42.2% | viability, T/C [29] 35.6% | viability, T/C [30] 28.4% | viability, T/C [31] 24.1% | viability, T/C [32] 23.9% | viability, T/C [33] 34.8% | viability, T/C [34] 34.1% | viability, T/C [35] 27.6% | viability, T/C [36] 24% | viability, T/C [37] 19.9% | viability, T/C [38] 19.2% | viability, T/C [39] 29.6% | viability, T/C [40] 27.2% | viability, T/C [41] 20.7% | viability, T/C [42] 20.6% | viability, T/C [43] 20.2% | viability, T/C [44] 18.8% | viability, T/C [45] 30.5% | viability, T/C [46] 25.7% | viability, T/C [47] 19.3% | viability, T/C [48] 20.7% | viability, T/C [49] 18.6% | viability, T/C [50] 18.7%
106 nM: IC50 (second compound 0.01 µM)
